# Reference: patent US7084117B2, “Pharmaceutical compositions which inhibit vascular proliferation and method of use thereof” (Societe de Conseils de Recherches et d'Applications …, priority 2001, dated 2006)
# Assays:
# [1] = system: immortalized human microvascular endothelial HMEC-1 cells; test: Cytotoxicity assay (cell proliferation); format: cell-based; settings: 10^−6 M (+VEGF 10 ng/mL), 72 hours
# Procedure: The immortalized human microvascular endothelial cell line HMEC-1, characterized by Ades, et al., (Journal of Investigative Dermatology 1992, 99: 683–690), was maintained in Medium 199, supplemented with 10% heat-inactivated fetal bovine serum (FBS), penicillin (50 IU/mL) and hydrocortisone (100 μg/mL). Cells were routinely grown in 75 cm2 gelatin-coated tissue culture flasks and kept in a humidified atmosphere of 5% CO2 at 37° C. Cells were harvested with a solution of 0.25% trypsin-0.03% EDTA when they were in long phase of growth and maintained at the above-described culture conditions for all experiments.
# In vitro chemosensitivity testing was performed on single-cell suspensions of HEMC-1 cells (5×10^3 cells/well) plated in 96-well gelatin-coated sterile plastic plates and allowed to attach overnight. […] The treatments were scheduled so that each peptide was represented by at least nine wells. At the end of the experiment, cells were rinsed with phosphate buffered saline (PBS), harvested with trypsin/EDTA, and counted with an hemocytometer. Results are expressed as the percentage of cell proliferation versus controls and are the mean of three separate experiments±S.E repeated thrice.
# [2] = system: human placental vessel explants (capillaries sprouts); test: In vitro cultures of human placental vessels, sprouting index by image analysis; format: cell-based; settings: 10^−6 M, treated every two days for 28 days
# Procedure: The experimental procedure described by Brown et al., (Laboratory Investigation 1996, 75: 539–555) was followed and modified in the present study. Immediately after the spontaneous delivery, the placenta was collected in sterile conditions and superficial blood vessels, approximately […] in diameter and from 1 to 5 cm in length, were excised. Vessel explants were placed in phosphate buffered saline (PBS) solution containing […] of amphotericin B and 50 μg/mL of gentamycin and were cut into approximately 1-mm fragments. […]
# The image analysis procedures described by Bocci et al., (Cancer Chemotherapy Pharmacology 1999, 43: 205–212), were adopted for the present study. […] The true color image analysis software package KS 300 v.1.2 (Kontron Elektronik GmbH, Eching, Germany) was run for interactive manipulation, quantification of the images and data collection. […] In the fibrin culture of placental vessel explants the mean gray level of the sprouting area was measured and the sprouting index (SI) was defined as: Sprouting index=((sprouting area/mean gray level of sprouting area)/perimeter of explant)×100. Results are expressed as the percentage of sprouting index+/−S.E. versus controls.
smiles,measurement,setting,value
"Cc1cc(C)c(/C=C2\C(=O)Nc3ccccc32)[nH]1 [SU5416, 3-((2,4-dimethylpyrrol-5-yl)methylidenyl)-2-indolinone]",cell growth block,[1],56.2%
same,sprouting index (SI) as compared to untreated controls,[2],32.92±9.7%
